Source: patent US11535622B2, “Pyrrolo[1,2-b] pyridazine derivatives” (Gilead Sciences, Inc., priority 2018, dated 2022)
Where two headings read alike, the source gives them in different places.

Assays:
TNFα = test: IRAK4 monocyte TNFα cell based assay (LPS stimulated); parameters: species or system human
Experimental: IRAK4 Monocyte TNFα Cell Based Assay Procedure:
The cell suspension was then plated at a density of 5,000 cells/well onto black 384 well Greiner clear bottom plates. Plates were pre-spotted with test compounds and serially diluted in DMSO where 40 nL/well were delivered using the Echo 550 acoustic liquid dispenser (Labcyte®) for a final DMSO concentration of 0.1%. Plated cells were treated with compound for 1 hour at 37° C. Cells were then stimulated with 50 pg/ml of LPS (Sigma) excluding outside columns of plate used for unstimulated cell control wells. Cells were incubated for an additional 4 hours at 37° C. Cells were then spun out of the media and 5 μl of sample were taken and analyzed for total TNFα content using the TR-FRET Human TNFα detection system (CisBio). This system utilizes two labeled antibodies (cryptate and XL665) that bind to two different epitopes of the TNFα molecule and produce FRET signal proportional to the concentration of TNFα in the sample. Detection antibodies are mixed 50:50 and 5 μL were dispensed into each well. Plates were covered with clear seals and incubated at room temp overnight. […] Percent of control was calculated as follows: % Control=100×(RatioSample−Ratio0% stimulation)/(Ratio100% Stimulation−Ratio0% Stimulation) where unstimulated cells (0% stimulation) were the negative control and stimulated cells (100% stimulation) were used as the positive control.

[1] = pKa determination (pKa PRO Analyzer); format: physicochemical
Experimental: Sample Preparation: A stock solution of test compound in dimethyl sulfoxide (DMSO) having a final concentration of 10 mM was prepared and used in all experiments. The DMSO stocks were thawed, spun, and sonicated in a 40° C. water bath to facilitate dissolution.
The compounds were then transferred into 24 consecutive wells of a 96 well PCR plate for analysis with the aqueous method. […] The compounds were transferred into 24 consecutive wells of a 96 well plate for analysis using the co-solvent method.
Analysis: All data was obtained using a pKa PRO Analyzer (AATI, Ames, Iowa). For the aqueous method, an electrophoretic separation is performed in parallel across 24 different pH values, providing a direct measure of overall compound charge vs. pH. The compounds are detected by UV at 228 nm. The average pH spacing between buffer points is 0.4 pH units covering a typical pH range of 1.7-11.2.
The average pH spacing between buffer points is 0.4 pH units covering a pH range of 1.7-11.2. Four consecutive CE runs are performed for each compound starting with 60% co-solvent buffers and decreasing to 30% co-solvent buffers.
Norfloxacin is used as a daily performance-indicating standard.
Calculation of Results: The total number of pKa values is predicted by relating mobility and compound molecular weight using pKa Estimator® software (AATI, Ames, Iowa).

IRAK4 enzyme = IRAK4 enzyme (Homo sapiens (Human), UniProt Q9NWZ3); test: IRAK4 biochemical assay (HTRF/TR-FRET); details: 500 μM ATP
Experimental: IRAK4 enzyme (Carna Biosciences, Chuo-ku, Kobe, Japan) activity was measured by detecting phosphorylated peptide substrate formation using an antibody against the phosphorylated peptide substrate. This is a time-resolved fluorescence resonance energy transfer (TR-FRET) immunoassay, based on the STK1 KnEASE Assay (Cisbio, Bedford, Mass.). […] Compounds diluted in DMSO were spotted into 384 well plates using a Labcyte® Echo 550 Liquid Handling System prior to addition of IRAK4 enzyme and peptide substrate. Reaction solutions were delivered using a Multi-Flo (Bio-Tek Instruments). The enzyme and peptide solution was incubated with compound for 15 minutes at room temp before the reaction was initiated by the addition of ATP.

[2] = test system: human cryopreserved hepatocytes; test: Metabolic stability in cryopreserved hepatocytes; format: in vitro ADME; details: 1 μM test compound
Experimental: Metabolic Stability in Cryopreserved Hepatocytes: Complete HT medium was prepared by the addition of 1 mL Torpedo Antibiotic Mix to 45 mL of InVitroGRO™ HT medium. Supplemented KHB medium consisted of KrebsHenseleit buffer with amikacin (84 μg/mL), calcium chloride (1 mM), gentamicin (84 μg/mL), HEPES (20 mM), heptanoic acid (4.2 μM) and sodium bicarbonate (28.5 mM) and the pH was adjusted to 7.4 at 37° C. using 1 M NaOH or 1 M HCl. The human cryopreserved hepatocytes were pooled from ten adult donors (Celsis, Lot: HBZ).
Vials containing cryopreserved hepatocytes were removed from liquid nitrogen and immediately immersed in a 37° C. water bath. The vials were shaken gently until the contents had thawed and were then immediately emptied into 48 mL of pre warmed Complete HT Medium in a 50 mL conical tube. Cells remaining in the vial were resuspended with 1.0 mL of pre warmed Complete HT Medium and added to the conical tube. The tube was capped and then gently inverted several times to resuspend the hepatocytes. The cell suspension was centrifuged at 50×g at room temperature for 5 minutes and the supernatant discarded. The cell pellet was loosened by gently swirling the centrifuge tube and Supplemented KHB medium was added to obtain a target density of 2×10^6 cells/mL. The total cell count and the proportion of viable cells were determined by Trypan Blue dye exclusion using a hemocytometer.
For incubations, aliquots of hepatocyte suspension (250 μL containing 500,000 cells) were added to 250 μL of 2 μM test compound or metabolic stability controls in supplemented KHB in duplicate wells in a 24-well plate. Final concentration in the incubations were 1×10^6 cells/mL and 1 μM test compound. 7-Hydroxycoumarin and testosterone, compounds known to be efficiently metabolized by hepatocytes, were used as positive controls in parallel incubations ([…] final concentration of each compound). The incubation was carried out with gentle shaking at 37° C. under a humid atmosphere of 95% air/5% CO2 (v/v). Aliquots (50 μL) were removed after 0, 1, 3, and 6 hours and added to 100 μL IS/Q quenching solution. After termination, 150 μL of water was added, the plates were centrifuged at 3000×g for 10 min, and aliquots of the supernatant were analyzed on a Micromass Quattro Premier mass spectrometer coupled to an Agilent 1200 Series HPLC system with a Leap Technologies HTC PAL autosampler as described below.
Liquid Chromatography-Mass Spectrometry: Quantification of test compound and metabolic stability controls was performed by analyte/internal standard peak area ratios (PAR) measured on a Micromass Quattro Premier XL tandem triple quadrupole mass spectrometer coupled to an Agilent 1200 Series HPLC system with a Leap Technologies HTC PAL autosampler. The column used was a Phenomenex® MercuryMS™, Synergi Max-RP (100 Å pore size, 2.5 μm particle size, 20×2.0 mm). Mobile Phase A consisted of 0.2% (v/v) formic acid in 99% water/1% acetonitrile (v/v). Mobile Phase B consisted of 0.2% (v/v) formic acid in 5% water/95% acetonitrile (v/v). Elution was achieved by the following series of linear gradients: initial conditions of 0% B, holding for 30 s, then increasing to 100% B over 90 s, and then returning to the initial conditions over 1 s. The system was allowed to re-equilibrate for a minimum of 60 s between injections. The sample injection volume was 10 μL.

[3] = molecular target: cloned hERG potassium channel encoded by the KCNH2 gene (Homo sapiens (Human), UniProt Q12809); test: Automated hERG assay (FASTPatch, QPatch); format: cell-based; details: HEK293T cells, patch clamp, 0.3-30 uM
Experimental: The FASTPatch® Assay (Charles River) was used to examine the in vitro effects of various compounds on the cloned hERG potassium channel encoded by the KCNH2 gene and stably expressed in HEK293T cells. Vehicle, test and control article formulations were prepared by diluting DMSO stock solutions in HB-PS (HEPES-buffered physiological saline solution), and were delivered to cells via the QPatch robot pipetting system to a final concentration of 0.3% DMSO. […] The positive control, 50 nM Cisparide, was applied in the same manner. Cell membrane currents were recorded at room temperature with up to 48 parallel patch clamp amplifiers in the QPatch HT® or QPatch HTX® system, and only cells with validated whole-cell recordings (seal resistance ≥200 MO and leak current ≤25% channel current) were used. Onset and block of hERG current was measured using a stimulus voltage pattern consisting of a 500 ms prepulse to −40 mV, a 2-second activating pulse to +40 mV, followed by a 2-second test pulse to −40 mV. The pulse pattern was repeated continuously at 10-second intervals from a holding potential of −80 mV. TurboSol analysis for test compound solubility was performed for each concentration tested using a Nephelostar reader measuring light scatter from a 635 nm laser source. […]

[4] = human monocytes, LPS 50 pg/ml, TNFα by TR-FRET, read-out: EC50 TNF

Chain of IRAK4 enzyme (Q9NWZ3 whole entry): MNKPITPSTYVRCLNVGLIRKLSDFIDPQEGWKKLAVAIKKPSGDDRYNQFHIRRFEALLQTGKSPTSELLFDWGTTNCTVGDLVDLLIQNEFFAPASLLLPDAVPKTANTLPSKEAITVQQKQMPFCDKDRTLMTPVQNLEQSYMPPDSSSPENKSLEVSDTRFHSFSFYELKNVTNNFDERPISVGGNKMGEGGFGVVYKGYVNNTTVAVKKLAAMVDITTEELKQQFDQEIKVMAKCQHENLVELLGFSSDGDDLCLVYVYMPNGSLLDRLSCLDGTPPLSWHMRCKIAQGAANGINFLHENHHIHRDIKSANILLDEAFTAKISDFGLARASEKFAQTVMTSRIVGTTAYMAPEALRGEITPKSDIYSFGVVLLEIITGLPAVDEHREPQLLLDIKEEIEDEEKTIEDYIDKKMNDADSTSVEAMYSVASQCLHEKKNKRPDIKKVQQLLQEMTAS
Chain of cloned hERG potassium channel encoded by the KCNH2 gene (Q12809 whole entry): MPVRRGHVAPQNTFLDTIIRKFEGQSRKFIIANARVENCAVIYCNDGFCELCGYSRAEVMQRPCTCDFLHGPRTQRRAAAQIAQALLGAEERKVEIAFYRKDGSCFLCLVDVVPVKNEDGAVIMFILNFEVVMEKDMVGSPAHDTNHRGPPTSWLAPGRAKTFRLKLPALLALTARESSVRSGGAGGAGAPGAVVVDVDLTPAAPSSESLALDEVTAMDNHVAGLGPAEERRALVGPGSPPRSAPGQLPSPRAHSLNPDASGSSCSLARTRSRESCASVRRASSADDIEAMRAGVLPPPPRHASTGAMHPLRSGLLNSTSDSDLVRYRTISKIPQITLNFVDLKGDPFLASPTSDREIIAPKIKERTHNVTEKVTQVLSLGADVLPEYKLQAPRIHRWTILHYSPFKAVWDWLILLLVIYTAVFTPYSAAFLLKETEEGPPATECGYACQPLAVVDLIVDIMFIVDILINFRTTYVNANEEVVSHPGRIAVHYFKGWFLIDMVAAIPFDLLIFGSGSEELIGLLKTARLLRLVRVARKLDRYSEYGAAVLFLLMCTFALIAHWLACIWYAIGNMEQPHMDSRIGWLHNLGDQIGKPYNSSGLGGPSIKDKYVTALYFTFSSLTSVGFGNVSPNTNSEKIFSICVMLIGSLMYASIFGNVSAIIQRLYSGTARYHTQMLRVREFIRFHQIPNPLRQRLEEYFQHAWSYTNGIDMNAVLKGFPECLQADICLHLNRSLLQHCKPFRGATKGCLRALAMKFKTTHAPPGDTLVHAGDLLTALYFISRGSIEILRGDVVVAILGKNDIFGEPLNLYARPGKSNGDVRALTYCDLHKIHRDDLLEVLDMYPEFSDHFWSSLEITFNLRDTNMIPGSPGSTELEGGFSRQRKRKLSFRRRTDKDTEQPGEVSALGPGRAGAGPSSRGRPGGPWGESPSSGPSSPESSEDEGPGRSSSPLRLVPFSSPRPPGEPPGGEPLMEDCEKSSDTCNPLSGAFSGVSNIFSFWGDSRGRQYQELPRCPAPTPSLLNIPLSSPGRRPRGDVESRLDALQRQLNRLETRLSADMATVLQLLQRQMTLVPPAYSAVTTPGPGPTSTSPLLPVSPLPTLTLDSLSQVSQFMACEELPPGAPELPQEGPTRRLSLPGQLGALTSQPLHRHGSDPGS

Structure (SMILES) | EC50 (TNFα; [4]) [nM] | pKa [1] | IC50 (IRAK4 enzyme) [nM] | Human Hep. Stability [2] [mL/min/kg] | IC50 [3] [nM] | EC50 (TNFα; protein adjusted, competitive equilibrium dialysis, human plasma versus CCM with 10% FBS, read-out: Protein Adj. EC50 TNF) [nM]
CC(C)(O)[C@H](F)CNC(=O)c1cnc(-c2ccc3cc(C#N)cnn23)cc1NCCC#N [Compound 7, (R)-4-((2-cyanoethyl)amino)-6-(3-cyanopyrrolo[1,2-b]pyridazin-7-yl)-N-(2-fluoro-3-hydroxy-3-methylbutyl)nicotinamide] | 164 | – | – | – | – | –
CC(C)Nc1cc(-c2ccc3cc(C#N)cnn23)ncc1C(=O)NC[C@@H](F)C(C)(C)O [A, reference compound] | 23 | 6.1 | < 1 | 3.33 | 3900 | 504
CC[C@@H](C#N)Nc1cc(-c2ccc3cc(C#N)cnn23)ncc1C(=O)NC[C@@H](F)C(C)(C)O [Compound 6, 4-(((S)-1-cyanopropyl)amino)-6-(3-cyanopyrrolo[1,2-b]pyridazin-7-yl)-N-((R)-2-fluoro-3-hydroxy-3-methylbutyl)nicotinamide] | 267 | – | 5 | – | – | –
CC(C)(C#N)Nc1cc(-c2ccc3cc(C#N)cnn23)ncc1C(=O)NC[C@@H](F)C(C)(C)O [Compound 9, (R)-4-((2-cyanopropan-2-yl)amino)-6-(3-cyanopyrrolo[1,2-b]pyridazin-7-yl)-N-(2-fluoro-3-hydroxy-3-methylbutyl)nicotinamide] | 49 | 4.8 | < 1 | 4.33 | – | –
CC(C)(O)[C@H](F)CNC(=O)c1cnc(-c2ccc3cc(C#N)cnn23)cc1NCCCC#N [Compound 8, (R)-4-((3-cyanopropyl)amino)-6-(3-cyanopyrrolo[1,2-b]pyridazin-7-yl)-N-(2-fluoro-3-hydroxy-3-methylbutyl)nicotinamide] | 33 | 5.9 | < 1 | 2.33 | 3500 | –
CC[C@H](C#N)Nc1cc(-c2ccc3cc(C#N)cnn23)ncc1C(=O)NC[C@@H](F)C(C)(C)O [Compound 5, 4-(((R)-1-cyanopropyl)amino)-6-(3-cyanopyrrolo[1,2-b]pyridazin-7-yl)-N-((R)-2-fluoro-3-hydroxy-3-methylbutyl)nicotinamide] | 60 | – | 1 | – | – | –
CC(C)(O)[C@H](F)CNC(=O)c1cnc(-c2ccc3cc(C#N)cnn23)cc1NC1(C#N)CC1 [Compound 10, (R)-4-((1-cyanocyclopropyl)amino)-6-(3-cyanopyrrolo[1,2-b]pyridazin-7-yl)-N-(2-fluoro-3-hydroxy-3-methylbutyl)nicotinamide] | 35 | – | < 1 | 3.67 | – | –
C[C@H](C#N)Nc1cc(-c2ccc3cc(C#N)cnn23)ncc1C(=O)NC[C@@H](F)C(C)(C)O [Compound 3, 4-(((R)-1-cyanoethyl)amino)-6-(3-cyanopyrrolo[1,2-b]pyridazin-7-yl)-N-((R)-2-fluoro-3-hydroxy-3-methylbutyl)nicotinamide] | – | 4.9 | – | 1.3 | – | –
CC(C)(O)[C@H](F)CNC(=O)c1cnc(-c2ccc3cc(C#N)cnn23)cc1NCC#N [Compound 2, (R)-4-((cyanomethyl)amino)-6-(3-cyanopyrrolo[1,2-b]pyridazin-7-yl)-N-(2-fluoro-3-hydroxy-3-methylbutyl)nicotinamide] | – | 5.1 | – | 2.17 | – | –
CNc1cc(-c2ccc3cc(C#N)cnn23)ncc1C(=O)NC[C@@H](F)C(C)(C)O [Compound 1, (R)-6-(3-cyanopyrrolo[1,2-b]pyridazin-7-yl)-N-(2-fluoro-3-hydroxy-3-methylbutyl)-4-(methylamino)nicotinamide] | – | 6.6 | – | 0.83 | – | –
